Measured values reported in PMC12566971, “Polyprenylated Acylphloroglucinols from Hypericum rochelii and Hypericum olympicum—Cytotoxic Effects on Non-Tumorigenic Cell Lines and Antibacterial Potential” (Pharmaceuticals, 2025).
≈ marks a conversion by molar mass, not a printed value. Where “and” joins values, the source holds several entries; their conditions need not be identical. Equal entries are not always repeated.

Columns and labels:
icaA gene in MRSA = experiment: Real-time PCR, relative gene expression; format: cell-based, Staphylococcus aureus; details: control = 1
Description: (§1) The preparation of the samples for the RNA isolation was carried out as for the biofilm assay. RNA from the treated samples and the untreated positive MRSA control was isolated with the help of the Environmental DNA & RNA Purification Kit (E3572, EURx Ltd., Gdańsk, Poland). […] A total of 50 µL lysozyme (20 mg/mL) from chicken egg white (L6876, Merck Sigma-Aldrich) and 10 µL lysostaphin (L4402, Merck Sigma-Aldrich) from Staphylococcus staphylolyticus (200 U/mL) were added per sample. […] The samples, being bacterial, were subjected to cDNA synthesis using random hexamer primers and reverse transcriptase enzymes. The obtained cDNA samples were stored at −80 °C and used for real-time PCR.
(§2) For normalization of the data, the rho gene was used as a housekeeping gene.

icaD gene in MRSA = experiment: Real-time PCR, relative gene expression; format: cell-based, Staphylococcus aureus; details: control = 1
Description: as §1, §2

Streptococcus mutans = experiment: MIC and MBC evaluation (broth microdilution, agar plate assay); format: cell-based
Description: (§3) The MIC and MBC assessment on the pathogenic bacteria and the candidate probiotic lactic acid bacteria was carried out by the broth microdilution assay (BMD) and the agar plate assay, respectively, as described in [4]. The metabolic (dehydrogenase) activity of the lactic acid bacteria was assessed as described in [4].
(§4) P. aeruginosa PAO1 ATCC 15692 was purchased from the American Type Cell Culture Collection (ATCC, Manassas, VA, USA). S. mutans DSM 20523 was bought from the German Collection of Microorganisms and Cell Cultures (DSMZ GmbH, Braunschweig, Germany). All other bacteria and strains were purchased as described in [4].

Staphylococcus aureus [1] = experiment: as above; format: cell-based
Description: as §3, §4

HaCaT = experiment: MTT assay for cytotoxicity; format: cell-based, human; details: for IC50: Homo sapiens, HaCaT
Description: (§5) The MTT assay was performed according to Annex C, ISO 10993-5 [56] as in [116]. The panel of non-tumorigenic cell lines consisted of one murine (CCL-1 fibroblasts, which are recommended as a standard for cytotoxicity evaluation in Annex C of ISO 10993-5 [56]) and four human cell lines—HaCaT (immortalized epidermal keratinocytes), HGF (gingival fibroblasts), HEK-293 (embryonic cells from kidney epithelium), and HEPG2 (hepatoblastoma). Although technically a cancer cell line, HEPG2 is non-tumorigenic and retains many hepatocyte-related features in its proteome and a high degree of morphological and functional differentiation, also being a stage one hepatoblastoma.
(§6) CCL-1 was purchased from ATCC and HaCaT and HGF were bought from CLS Cell Lines Service (GmbH, Eppelheim, Germany). HEK-293 and HEPG2 were obtained from DSMZ. The cell culture medium for HaCaT and HEPG2 was Dulbecco’s Modified Eagle Medium (DMEM) with 4.5 g/L glucose (DMEM-HA). For HGF it was DMEM/F-12 (DMEM-12-A, a 1:1 mixture of DMEM and Ham’s F-12 medium). The cell medium for CCL-1 and HEK-293 was Eagle’s Minimum Essential Medium (MEM) (MEM-A). Ten percent heat-inactivated fetal bovine serum (FBS) was added to all media but to the one for the CCL-1 cells, to which 10% heat-inactivated horse serum was added. All media were supplemented with 2 mM L-glutamine and Penicillin/Streptomycin (Pen/Strep, 100×). The cell culture media, sera, and additives were from Capricorn Scientific (Düsseldorf, Germany).
(§7) GraphPad Prism software version 9 (GraphPad Software Inc., San Diego, CA, USA) was used to calculate the IC50 values from the MTT assays as in [116], as well as the MTC values, and the ELISA standard curves. The MTC values are, according to ISO 10993-5, the maximum concentration at which at least 70% of the cells are viable (nonlin fit, range).

HEPG2 = experiment: MTT assay for cytotoxicity; format: cell-based, human; details: for IC50: Homo sapiens, HepG2
Description: as §5, §6, §7

[2] = system: Methicillin-Resistant S. aureus (MRSA); experiment: MIC and MBC evaluation (broth microdilution, agar plate assay); format: cell-based, Staphylococcus aureus
Description: as §3, §4

Staphylococcus aureus [3] = details: ref [4],[29]; cited from earlier work
[4] = system: Human embryonic kidney-293 (HEK-293); experiment: MTT assay for cytotoxicity; format: cell-based; details: for IC50: Homo sapiens, HEK293
Description: as §5, §6, §7

[5] = system: Human gingival fibroblasts (HGF); experiment: MTT assay for cytotoxicity; format: cell-based; details: for IC50: Homo sapiens, Fibroblast
Description: as §5, §6, §7

S. aureus biofilm = experiment: Biofilm assay; format: cell-based, Staphylococcus aureus
Description: The biofilm assay was performed according to the protocol of Stepanović [138], as already described.

rabbit skin = details: in vivo
Description: Dermal toxicological screening of the chosen two non-toxic active substances was performed on animals. This was carried out according to the European standard ISO 10993-10: 2010 (E): Biological evaluation of medical devices, Part 10 Skin irritation and sensitization tests (6. […] The animal study protocol was approved by the opinion No. 148 of 09.04.2019 of the Ethics Committee of the Bulgarian Food Safety Agency of the Ministry of Agriculture, Food, and Forestry. The Permit to work with experimental rabbits No. 232 was valid until 11.04.2024 and issued on the basis of Article 155, paragraph 7, of the Veterinary Medical Activity Act. The albino rabbits were cared for as specified in ISO 10993-2 (withdrawn; superseded by ISO 10993-2:2022) and Ordinance No. 20 (State Gazette of Bulgaria, No. 87, 9 November 2012). Four square test sites were made on the back of the rabbit by clipping the fur. The samples were applied to 2 of them, while the other 2 were used as a positive control (10–20% SDS) and a negative control (the buffer in which the agents were diluted, i.e., PBS). The exposure time was 4 h, and at the end of it the appearance was checked for erythema (redness) and edema. Additional inspections were performed at hours 24, 48, and 72.

[6] = bactericidal if ≤ 4, bacteriostatic if > 4
[7] = at least 70% of cells viable, ISO 10993-5

## CC(C)=CCCC1(C)C(CC=C(C)C)CC2C(=O)C1(C(=O)C(C)C)C(=O)C(CC=C(C)C)=C2O (centres unmarked) [Olympiforin B]
icaA gene in MRSA; 1/8 × MIC
  Relative gene expression, icaA: 0.37
icaA gene in MRSA; 1/16 × MIC
  Relative gene expression, icaA: 0.53
icaA gene in MRSA; 1/32 × MIC
  Relative gene expression, icaA: 0.28
icaD gene in MRSA; 1/8 × MIC
  Relative gene expression, icaD: 0.41
icaD gene in MRSA; 1/16 × MIC
  Relative gene expression, icaD: 0.82
icaD gene in MRSA; 1/32 × MIC
  Relative gene expression, icaD: 0.95
Streptococcus mutans; Streptococcus mutans, read-out: MBC for S. mutans
  MBC: 6.25 µg/mL and 11.1 µM
Streptococcus mutans; Streptococcus mutans, read-out: MIC for S. mutans
  MIC: 3 µg/mL and 5.57 µM
Streptococcus mutans; [6]
  MBC/MIC ratio, Streptococcus mutans: 2
Staphylococcus aureus [1]; Staphylococcus aureus, read-out: Minimal bactericidal concentration (MBC), Staphylococcus aureus
  MBC: 19 µg/mL and 34 µM
Staphylococcus aureus [1]; [6]
  MBC/MIC ratio, S. aureus: 19
HaCaT; MTT assay
  IC50: 1.71 µg/mL
HaCaT; converted to µM
  IC50: 3.65 µM
HaCaT; concentration at which at least 70% of cells are viable, ISO 10993-5
  Maximum tolerated concentration (MTC), HaCaT: 0.52 µg/mL
HEPG2; MTT assay
  IC50: 4.5 µg/mL
HEPG2; converted to µM
  IC50: 9.6 µM
HEPG2; [7]
  Maximum tolerated concentration (MTC), HEPG2: 1.54 µg/mL
[2]; Staphylococcus aureus, MRSA
  MBC: 68 µg/mL and 121 µM
[2]; [6]
  MBC/MIC ratio, MRSA: 68
Staphylococcus aureus [3]
  MIC on bacteria, S. aureus: 1 µg/mL (≈ 2.13 µM)
[4]; MTT assay
  IC50: 0.67 µg/mL
[4]; converted to µM
  IC50: 1.43 µM
[4]; [7]
  Maximum tolerated concentration (MTC), HEK-293: 0.46 µg/mL
[5]; MTT assay
  IC50: 18 µg/mL
[5]; converted to µM
  IC50: 38.4 µM
[5]; [7]
  Maximum tolerated concentration (MTC), HGF: 16.06 µg/mL
S. aureus biofilm; Staphylococcus aureus, read-out: Median Biofilm Inhibitory Concentration (MBIC50), S. aureus
  IC50: 0.07 µg/mL and 150 nM
S. aureus biofilm; no visible biofilm
  Minimum Biofilm Inhibitory Concentration (MBIC), S. aureus: 1 (MIC) µg/mL
Rabbit skin
  Skin irritation on rabbits: do not cause skin toxicity
